According to patent US20160051665A1, “INDUCTION OF IMMUNE RESPONSE” (priority 2010, published 2016):
“Also recorded” adds a separate entry of the source.

Key:
[1] = tested on: WHV surface antigen (WHsAg); test: serum WHsAg enzyme immunoassay in chronic WHV carrier woodchucks; assay type: in vivo, woodchuck; conditions: for WHsAg, Av(range): serum
Procedure: (§1) All experimental procedures involving woodchucks were performed under protocols approved by the Cornell University Institutional Animal Care and Use Committee. Woodchucks were born to WHV-negative females in environmentally controlled laboratory animal facilities and inoculated at 3 days of age with 5 million infectious doses of a standardized WHV inoculum (23). Woodchucks were selected as chronic WHV carriers based on persistent detection of WHV surface antigen (WHsAg) and WHV DNA in serum prior to treatments. All animals were free of HCC at the beginning of the study as determined by hepatic ultrasound examination and normal serum activity of γ-glutamyl-transferase (GGT).
Twenty adult chronically infected woodchucks were stratified by age, sex, body weight, serum viral load, and serum GGT activity into four treatment groups of five animals each. Drug was administered orally at 100 mg/kg (in sterile water), chosen after an initial dose finding trial. […] The subunit vaccine consisted of 22-nm WHsAg particles, purified by zonal ultracentrifugation from serum of WHV7P1-infected WHV carriers (24), inactivated with formalin, and adsorbed onto alum. Prior to alum adsorption, vaccine was tested in naïve, WHV-susceptible animals and no residual virus was detected. Purified WHsAg was not pretreated with enzymes that remove preS sequences. […]
(§2) Serum WHV DNA was measured quantitatively by dot blot hybridization (assay sensitivity, ≧1.0×10^7 WHV genome equivalents per ml [WHVge/ml]) (25). Serum WHsAg, antibodies to WHV core antigen (anti-WHc), and WHV surface antigen (anti-WHs) were determined with WHV-specific enzyme immunoassays (26). […]
(§3) Woodchucks chronically infected with WHV experienced significant immunological responses to envelope proteins following immunization with WHsAg-containing vaccines, especially in the context of low viral and antigen loads following treatment with an effective antiviral agent, 1-(2-fluoro-5-methyl-beta-L-arabinofuranosyl)-uracil (L-FMAU) (29, 35). […] Animals were scored as positive if cells proliferated above the cut-off value of 2: 3.1. […]

[2] = serum ALT, marker of hepatocellular injury, in woodchucks; assay type: in vivo, woodchuck
Procedure: as §1
Twenty adult chronically infected woodchucks were stratified by age, sex, body weight, serum viral load, and serum GGT activity into four treatment groups of five animals each. Drug was administered orally at 100 mg/kg (in sterile water), chosen after an initial dose finding trial. […] Prior to alum adsorption, vaccine was tested in naïve, WHV-susceptible animals and no residual virus was detected. […]
as §2

glucosidases = test: glycan analysis of serum: tri-glucosylated glycans (Glu3); assay type: in vivo, woodchuck
Procedure: Sample preparation for glycan analysis was performed essentially as described (27). HPLC separation was performed using the Waters Alliance HPLC system with a Waters fluorescence detector, and quantified using the Millenium Chromatography Manager (Waters Corporation, Milford, Mass.). Tri-glucosylated structures were identified by comparison to known standards (27, 28).
In vivo, levels of circulating glycoproteins with N-glycans bearing three terminal glucose residues reflect the extent of glucosidase inhibition (11). […] Note that BuCas-treated animals that were negative for tri-glucosylated glycans at the 10-week time point were positive at one or more other time points (data not shown). No tri-glucosylated glycans were detected in any drug-naïve animals (Table 2).

[3] = serum drug level after single oral dose in woodchucks; assay type: in vivo; conditions: woodchuck, single oral dose of 100 mg/kg
Procedure: Twenty adult chronically infected woodchucks were stratified by age, sex, body weight, serum viral load, and serum GGT activity into four treatment groups of five animals each. Drug was administered orally at 100 mg/kg (in sterile water), chosen after an initial dose finding trial. […] The subunit vaccine consisted of 22-nm WHsAg particles, purified by zonal ultracentrifugation from serum of WHV7P1-infected WHV carriers (24), inactivated with formalin, and adsorbed onto alum. Prior to alum adsorption, vaccine was tested in naïve, WHV-susceptible animals and no residual virus was detected. Purified WHsAg was not pretreated with enzymes that remove preS sequences.

woodchuck PBMCs = test: PBMC proliferation assay (stimulation index) with PBMCs of treated woodchucks; assay type: in vivo
Procedure: T cell responses against WHY were determined using in vitro stimulators at concentrations optimal for cultures of woodchuck PBMCs (29, 30). Stimulators consisted of native 22-nm WHsAg (2 μg/ml), recombinant WHcAg (2 μg/ml), or synthetic peptides (10 μg/ml) corresponding to either native viral sequences or predicted N-de-glycosylated sequences (Table 1, below).
The in vitro proliferation assay using woodchuck PBMCs labeled dividing cells with [2-^3H]adenine (Amersham Pharmacia Biotech, Inc., Arlington Heights, Ill.). Woodchuck PBMCs were isolated from whole blood and stimulated as described (30, 31). Counts per minute of triplicate PBMC cultures were averaged and expressed as a stimulation index (SI) by dividing the average sample counts per minute in the presence of the stimulator by that observed in the absence of stimulator (six replicates). A SI value of ≧3.1 was considered to represent a positive, specific T-cell response.
as §3

SMILES: CCCC(=O)O[C@H]1CN2CC[C@H](O)[C@@H]2[C@@H](O)[C@H]1O [BuCas, 6-O-butanoyl castanospermine]
- antigenemia, in words ([1]; chronic WHV carrier woodchucks, all times tested): not altered significantly
- WHsAg, Av(range) ([1]; week 0 (baseline)): .38(.28-.43) optical density units
- WHsAg, Av(range) ([1]; week 10): .42(33-.52) optical density units
- ALT, Av(range) ([2]; week 0 (baseline)): 7.4 (4-9) Units/L
- ALT, Av(range) ([2]; week 10): 15.6 (10-22) Units/L
- glycan processing (tri-glucosylated glycans in sera), in words (glucosidases; sera of treated woodchucks): impaired glycan processing
- Glu3, % (tri-glucosylated glycans in serum) (glucosidases; week 10): .49 (0-.90) %
- Cmax, range [3]: 5000 to 12100 ng/mL
- average observed Cmax [3]: 7700 ng/mL
- PBMC response to paired N-peptides versus D-peptides (woodchuck PBMCs; glycosylation sequons at amino acids 4 and 146, from week 8 on, FIG. 4): responded more strongly to D-peptides versus N-peptides
- PBMC proliferation in response to WHV HBs antigens (woodchuck PBMCs; positive if SI ≧3.1, FIG. 3): resulted in proliferation in response to WHV HBs antigens; also recorded: stimulated cellular immunity to viral antigen
